Results: patent publication US20100279324A1, “Assay For Detecting Mycobacterial Infection” (The University of Birmingham, priority 2007, published 2010)

Tested on: T cells present in the PBL's
Format: cell-based, human
Conditions: anti-CD1b antibody, TB patients

For mycolic acid, the “CD1b restriction of antigen-specific response” value was “CD1b restricted”.
